Results on one molecule are retold here after patent US8349553B2, “Jasmonate based assays for identifying compounds that selectively inhibit mitochondrial bound hexokinases” (Ramot at Tel Aviv University Ltd., priority 2007, dated 2013).

The test system of assay [1] is mitochondria-bound hexokinase (mitochondrial fraction from a CT-26 tumor). Kind of assay: Hexokinase detachment assay, mitochondrial fraction of CT-26 tumor. The assay is classed as biochemical, murine. The settings on record: CT-26 tumor mitochondrial fraction. The method, then: (§1) Mitochondrial fraction was prepared by mechanical lysis and differential centrifugation. All stages were performed on ice. Cells or extracted tissues were washed with PBS and disrupted by homogenization in extraction buffer (Sucrose 250 mM, HEPES-NaOH 10 mM, pH 7.2) freshly supplemented with 0.1 mM EDTA and Protease Inhibitors cocktail (Sigma). For each gram of cells or tissue, 4 volumes of extraction buffer were applied. The homogenate volume was doubled with the extraction buffer, and tissue and cell debris as well as nuclei were pelleted by centrifugation of 1,000 g for 10 minutes. The supernatant was further spun at 13,000 g for 10 minutes twice. Endoplasmic reticulum layer was removed. The pellet, designated as the mitochondrial fraction, was suspended in the appropriate buffer, depending on the assay for which the mitochondrial fraction was prepared. Mitochondrial fractions were used immediately or stored at −196° C.
To determine the amount of hexokinase detached from the mitochondrial fraction by different agents, mitochondria were incubated with the agent of interest and pelleted by centrifugation. Activity of hexokinase in the supernatant (i.e., activity of the detached hexokinase) was determined spectrophotometrically at 340 nm. The reaction couples the ADP formation by hexokinase, consuming the ADP for pyruvate formation by pyruvate kinase, and reducing the pyruvate with NADH by lactate dehydrogenase. Briefly, mitochondria were suspended in incubation buffer (HEPES pH 7.4 20 mM, Sucrose 0.25M, Glucose 10 mM, KCl5 mM, MgCl2 10 mM; 0.2 mg/test, 100 μL/test) and incubated as described below. […]
Methyl jasmonate perturbs mitochondria directly in a PTPC-dependent manner (Rotem, 2005). In order to determine whether methyl jasmonate is able to detach hexokinase from mitochondrial fraction isolated from CT-26 tumors, the activity of hexokinase in the supernatant of mitochondrial fraction treated for different time periods was measured. […] The activity of unbound hexokinase was measured and compared to the activity of spontaneously detached hexokinase (control).

Assay [2] relates to mitochondria-bound hexokinase (mitochondrial fraction of BCL-1 leukemic cells). Kind of assay: Hexokinase detachment assay, mitochondrial fraction of BCL-1 leukemic cells. In kind it is biochemical, murine. The settings on record: BCL-1 mitochondrial fraction; 30 minutes at 37° C. The protocol: as §1, with “C. […] Activity of hexokinase in the supernatant (i.e., activity of the detached hexokinase) was determined spectrophotometrically at 340 nm. […] Mitochondrial fractions isolated from different cancer cells, namely Molt-4 cells, BCL-1 leukemic cells and B16 melanoma tumors were incubated for 30 minutes at 37° C., and the activity of unbound hexokinase was measured and compared to the activity of spontaneously (control) detached hexokinase. […]” for “C.”

The test system of assay [3] is BCL-1 leukemic cells. Kind of assay: Cellular ATP levels (CellTiter-Glo), BCL-1. In kind it is cell-based, murine. Conditions: 60 minutes of exposure, various concentrations. The method, then:
The CellTiter-Glo™ Luminescent Cell Viability Assay (Promega, Madison, Wis., U.S.A.) was employed (Fingrut, 2005). Upon completion of a given experiment, plates were equilibrated to room temperature. CellTiter-Glo™ reagent containing luciferin and luciferase was added to each well and the plates were mixed on an orbital shaker for 2 minutes to induce cell lysis. In the presence of ATP, Mg^2+ and molecular oxygen, mono-oxidation of luciferin is catalyzed by luciferase, generating a luminescence signal. Cells were then incubated for 10 minutes at room temperature to stabilize the luminescence signal. Luminescence was recorded using Kodak digital science—Image station 440 CD. Luminescence is directly proportional to ATP concentration. ATP depletion (% of control) was calculated in the following way: {(luminescence of control cells−luminescence of drug-treated cells)/luminescence of control cells}×100. In order to test the correlation between cellular ATP levels and the release of hexokinase from mitochondrial fraction different cancer cells, namely Molt-4 cells, BCL-1 leukemic cells and B16 melanoma tumors were exposed to various methyl jasmonate concentrations. […] CT26 and Molt-4 cells were then seeded in 24 well plates. CT26 cells were allowed to adhere over night. Cells were exposed to methyl jasmonate (MJ; 3 mM) for 1 hour. Trypan blue exclusion test was performed and cells were counted.
(Cellular ATP, detected with luciferase, serves as a proxy for viable cell number.)

As for `CC/C=C\CC1C(=O)CCC1CC(=O)OC` (stereo not shown) [methyl jasmonate], in assay [1] (3 mM, 10, 30 or 60 minutes at 37° C.), the “detachment of hexokinase (activity of unbound hexokinase compared to spontaneously detached control), time course” value was “detached hexokinase in a time-dependent manner”. Besides, in assay [1] (30 minutes of incubation), the “detachment of hexokinase (activity of unbound hexokinase compared to control), dose dependence” value is “dose-dependent”. For the same molecule, the “detachment of hexokinase (activity of unbound hexokinase compared to control)” value in assay [2] is “detached hexokinase from mitochondrial fraction isolated from the three different cancer cells”. Also, the “cellular ATP level” value in assay [3] is “significant and dose-dependent decrease of cellular ATP”.
